Source: patent US11427567B2, “Imidazolyl pyrimidinylamine compounds as CDK2 inhibitors” (Incyte Corporation, priority 2019, dated 2022)
pIC50: −log10 of the molar value.

Target: CDK2/Cyclin E1 (Homo sapiens (Human), UniProt P24941)
Test: CDK2/Cyclin E1 HTRF enzyme activity assay (Example A)
Assay type: biochemical
Conditions: 1 mM ATP
Protocol: Assays were conducted in white 384-well polystyrene plates in a final reaction volume of 8 μL. […] HTRF signals were read after 1 hour at room temperature on a PHERAstar FS plate reader (BMG Labtech). Data was analyzed with IDBS XLFit and GraphPad Prism 5.0 software using a three or four parameter dose response curve to determine IC50 for each compound.

Row | SMILES | pIC50
1 | CS(=O)(=O)N1CCC(Nc2ncc(C(F)(F)F)c(-c3cn(-c4ccc(N5CCC(N6CCCC6)CC5)cc4Cl)cn3)n2)CC1 [Example 146, 4-(1-(2-Chloro-4-(4-(pyrrolidin-1-yl)piperidin-1-yl)-phenyl)-1H-imidazol-4-yl)-N-(1-(methylsulfonyl)-piperidin-4-yl)-5-(trifluoromethyl)-pyrimidin-2-amine] | ≥ 7.30
2 | CN1CCN(c2ccc(-n3cnc(-c4nc(NC5CCN(S(C)(=O)=O)CC5)ncc4C(F)(F)F)c3)c(Cl)c2)C1=O [Example 147, 1-(3-Chloro-4-(4-(2-((1-(methyl-sulfonyl)piperidin-4-yl)amino)-5-(trifluoromethyl)-pyrimidin-4-yl)-1H-imidazol-1-yl)-phenyl)-3-methyl-imidazolidin-2-one] | ≥ 7.30
3 | CN1CCN(c2ccc(-n3cnc(-c4nc(NC5CCN(S(C)(=O)=O)CC5)ncc4C(F)(F)F)c3)c(Cl)c2)CC1 [Example 148, 4-(1-(2-Chloro-4-(4-methylpiperazin-1-yl)phenyl)-1H-imidazol-4-yl)-N-(1-(methylsulfonyl)-piperidin-4-yl)-5-(trifluoromethyl)-pyrimidin-2-amine] | ≥ 7.30
4 | CN(C)CCN(C)c1ccc(-n2cnc(-c3nc(NC4CCN(S(C)(=O)=O)CC4)ncc3C(F)(F)F)c2)c(Cl)c1 [Example 149, N^1-(3-Chloro-4-(4-(2-((1-(methyl-sulfonyl)piperidin-4-yl)amino)-5-(trifluoromethyl)-pyrimidin-4-yl)-1H-imidazol-1-yl)-phenyl)-N1,N2,N2-trimethylethane-1,2-diamine] | ≥ 7.30
5 | CS(=O)(=O)N1CCC(Nc2ncc(C(F)(F)F)c(-c3cn(-c4ccc(N5CCNC(=O)C5)cc4Cl)cn3)n2)CC1 [Example 150, 4-(3-Chloro-4-(4-(2-((1-(methyl-sulfonyl)piperidin-4-yl)amino)-5-(trifluoromethyl)-pyrimidin-4-yl)-1H-imidazol-1-yl)-phenyl)piperazin-2-one] | ≥ 7.30
6 | COc1ccc(-n2cnc(-c3nc(NC4CCN(S(C)(=O)=O)CC4)ncc3C(F)(F)F)c2)c(Cl)c1 [Example 151, 4-(1-(2-Chloro-4-methoxyphenyl)-1H-imidazol-4-yl)-N-(1-(methylsulfonyl)piperidin-4-yl)-5-(trifluoromethyl)pyrimidin-2-amine] | ≥ 7.30
7 | Cc1ccc(-n2cnc(-c3nc(N[C@H]4CCN(S(=O)(=O)c5cn(C)cn5)C[C@H]4C)ncc3C(F)(F)F)c2)c(C#N)n1 [Example 152, 6-Methyl-3-(4-(2-(((3R,4S)-3-methyl-1-((1-methyl-1H-imidazol-4-yl)sulfonyl)piperidin-4-yl)amino)-5-(trifluoromethyl)pyrimidin-4-yl)-1H-imidazol-1-yl)picolinonitrile] | ≥ 7.30
8 | Cc1ccc(-n2cnc(-c3nc(N[C@H]4CCN(S(=O)(=O)c5cnc(N)nc5)C[C@H]4C)ncc3C(F)(F)F)c2)c(C#N)n1 [Example 153, 3-(4-(2-(((3R,4S)-1-((2-Amino-pyrimidin-5-yl)-sulfonyl)-3-methylpiperidin-4-yl)amino)-5-(trifluoromethyl)-pyrimidin-4-yl)-1H-imidazol-1-yl)-6-methyl-picolinonitrile] | ≥ 7.30
9 | Cc1ccc(-n2cnc(-c3nc(N[C@H]4CCN(S(=O)(=O)c5ccn(C)n5)C[C@H]4C)ncc3C(F)(F)F)c2)c(C#N)n1 [Example 154, 6-Methyl-3-(4-(2-(((3R,4S)-3-methyl-1-((1-methyl-1H-pyrazol-3-yl)-sulfonyl)piperidin-4-yl)amino)-5-(trifluoromethyl)-pyrimidin-4-yl)-1H-imidazol-1-yl)picolinonitrile] | ≥ 7.30
10 | C[C@@H]1CN(S(=O)(=O)c2cn(C)cn2)CC[C@@H]1Nc1ncc(C(F)(F)F)c(-c2cn(-c3cccc(C#N)c3Cl)cn2)n1 [Example 155, 2-Chloro-3-(4-(2-(((3R,4S)-3-methyl-1-((1-methyl-1H-imidazol-4-yl)sulfonyl)piperidin-4-yl)amino)-5-(trifluoromethyl)pyrimidin-4-yl)-1H-imidazol-1-yl)benzonitrile] | ≥ 7.30
11 | C[C@@H]1CN(S(C)(=O)=O)CC[C@@H]1Nc1ncc(C(F)(F)F)c(-c2cn(-c3ccc4nccnc4c3Br)cn2)n1 [Example 156, 4-(1-(5-Bromoquinoxalin-6-yl)-1H-imidazol-4-yl)-N-((3R,4S)-3-methyl-1-(methylsulfonyl)piperidin-4-yl)-5-(trifluoromethyl)pyrimidin-2-amine] | ≥ 7.30
12 | CN(C)CCc1ccc(-n2cnc(-c3nc(NC4CCN(S(C)(=O)=O)CC4)ncc3C(F)(F)F)c2)c(Cl)c1 [Example 157, 4-(1-(2-Chloro-4-(2-(dimethylamino)ethyl)phenyl)-1H-imidazol-4-yl)-N-(1-(methylsulfonyl)piperidin-4-yl)-5-(trifluoromethyl)pyrimidin-2-amine] | ≥ 7.30
13 | CS(=O)(=O)N1CCC(Nc2ncc(C(F)(F)F)c(-c3cn(-c4ccc(CCN5CCC5)cc4Cl)cn3)n2)CC1 [Example 158, 4-(1-(4-(2-(Azetidin-1-yl)ethyl)-2-chloro-phenyl)-1H-imidazol-4-yl)-N-(1-(methyl-sulfonyl)piperidin-4-yl)-5-(trifluoro-methyl)pyrimidin-2-amine] | ≥ 7.30
14 | CN1CCN(CCc2ccc(-n3cnc(-c4nc(NC5CCN(S(C)(=O)=O)CC5)ncc4C(F)(F)F)c3)c(Cl)c2)CC1=O [Example 159, 4-(3-Chloro-4-(4-(2-((1-(methylsulfonyl)-piperidin-4-yl)-amino)-5-(trifluoro-methyl)pyrimidin-4-yl)-1H-imidazol-1-yl)phenethyl)-1-methylpiperazin-2-one] | ≥ 7.30
15 | Cc1nc(-c2nc(NC3CCN(S(C)(=O)=O)CC3)ncc2C(F)(F)F)cn1-c1ccc(C2CNC2)cc1F [Example 160, 4-(1-(4-(Azetidin-3-yl)-2-fluorophenyl)-2-methyl-1H-imidazol-4-yl)-N-(1-(methylsulfonyl)piperidin-4-yl)-5-(trifluoromethyl)pyrimidin-2-amine] | ≥ 7.30
16 | Cc1nc(-c2nc(NC3CCN(S(C)(=O)=O)CC3)ncc2C(F)(F)F)cn1-c1ccc(C2CCN(C)CC2)cc1F [Example 161, 4-(1-(2-Fluoro-4-(1-methylpiperidin-4-yl)phenyl)-2-methyl-1H-imidazol-4-yl)-N-(1-(methyl-sulfonyl)piperidin-4-yl)-5-(trifluoro-methyl)pyrimidin-2-amine] | ≥ 7.30
17 | CS(=O)(=O)N1CCC(Nc2ncc(C(F)(F)F)c(-c3cn(-c4ccc5nccnc5c4Br)cn3)n2)CC1 [Example 162, 4-(1-(5-Bromoquinoxalin-6-yl)-1H-imidazol-4-yl)-N-(1-(methylsulfonyl)piperidin-4-yl)-5-(trifluoromethyl)pyrimidin-2-amine] | ≥ 7.30
18 | CS(=O)(=O)N1CCC(Nc2ncc(C(F)(F)F)c(-c3cn(-c4ccc5cccnc5c4Br)cn3)n2)CC1 [Example 163, 4-(1-(8-Bromoquinolin-7-yl)-1H-imidazol-4-yl)-N-(1-(methyl-sulfonyl)piperidin-4-yl)-5-(trifluoromethyl)-pyrimidin-2-amine] | ≥ 7.30
19 | CS(=O)(=O)N1CCC(Nc2ncc(C(F)(F)F)c(-c3cn(-c4ccc5ncccc5c4Br)cn3)n2)CC1 [Example 164, 4-(1-(5-Bromoquinolin-6-yl)-1H-imidazol-4-yl)-N-(1-(methyl-sulfonyl)piperidin-4-yl)-5-(trifluoromethyl)-pyrimidin-2-amine] | ≥ 7.30
